Consider 1 compound from article PMC4533885, “Mouse Mincle: Characterization as a Model for Human Mincle and Evolutionary Implications” (Molecules, 2015).

Molecules are shown by their SMILES.

In the test the target is T1, mouse mincle (CLEC-4E) CRD, biotin-tagged (Mus musculus, UniProt Q9R0Q8).
T1 construct: gene Clec4e; minimal C-terminal carbohydrate-recognition domain (primers encode ACPLNWKHY... to ...PEISPLD) with C-terminal biotinylation tag GLNDIFEAQKIEWHE kept; immobilized on streptavidin wells
T1 sequence (Q9R0Q8 80-214): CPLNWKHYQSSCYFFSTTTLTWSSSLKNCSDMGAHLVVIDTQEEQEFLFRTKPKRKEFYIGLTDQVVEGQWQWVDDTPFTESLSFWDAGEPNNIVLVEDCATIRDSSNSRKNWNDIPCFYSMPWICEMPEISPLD
The test can be described thus: solid-phase competition with […]-Man-BSA reporter, CRD immobilized on streptavidin wells. It counts as binding.

By Ki is commonly meant a dissociation constant, usually derived from enzyme kinetics or from competition with a known ligand. A higher Ki goes with lower affinity. `OC[C@H]1O[C@H](O[C@H]2O[C@H](CO)[C@@H](O)[C@H](O)[C@H]2O)[C@H](O)[C@@H](O)[C@@H]1O` [trehalose] returned a Ki of 540 ± 180 µM.
